Assay [1] has as its system POI model mice. Description: Estrous cycle observation by vaginal smear cytology in POI model mice. In kind it is in vivo. Here is the method: Cytological observation of vaginal smear was performed daily.
The vagina of mice was exposed, and about 30 μl of normal saline was dripped into the vagina, gently aspirated onto the slide, and observed under the microscope. Staining was performed when necessary, fixed with 95% ethanol for 10 minutes, stained with hematoxylin in aqueous solution for 5-8 minutes, washed with running water for color separation, and then stained with eosin for 3 minutes. After drying. the slices were sealed with neutral gum.
The vagina of mice was exposed, and about 30 μl of normal saline was dripped into the vagina, gently aspirated onto the slide, and observed under the microscope. Staining was performed when necessary, stained with hematoxylin in aqueous solution for several minutes after drying, washed with running water for color separation, and then stained with alchhol eosin for several seconds. The slices were sealed with neutral gum.
During the estrous cycle, a series of histological and physiological changes occur in the reproductive and endocrine systems of mice. According to these changes, the estrous cycle can be divided into proestrous (P), estrous (E), metestrum (M) and diestrum (D). • 1. Observation of estrous cycle in mice of Example 1
After modeling and treatment, there were 6 mice left in the normal saline group, 6 mice left in the sodium fumarate treatment group, 7 mice left in the hyodeoxycholic acid group, and 7 mice left in the sodium fumarate and hyodeoxycholic acid combination group. […] The estrous cycle was divided into four periods (P: proestrous; E: estrous period; M: metestrum; D: diestrum) for vaginal smear cytological observation, the results are shown in FIG. 3.
The estrous cycle of mice was plotted according to the cytological results of vaginal smears observed for 12 consecutive days, and the results are shown in FIG. 4. The estrous cycle of mice is about 4 to 5 days, which is divided into four periods alternately. […] The estrous cycle of 4 mice was recovered in sodium fumarate treatment group. The estrous cycle of 3 mice was recovered in HDCA group. The estrous cycle of 6 mice was recovered in group treated with SF and HDCA.

Assay [2] has as its system POI model mice. The assay is described as above. In kind it is in vivo. The source holds these as a separate data set.
The mark [3] stands for this setting: Example 1, during drug administration, FIG. 4B.
[4] abbreviates: Example 2, during drug administration, FIG. 5B.

For the compound `C[C@H](CCC(=O)O)[C@H]1CC[C@H]2[C@@H]3C[C@H](O)[C@@H]4C[C@H](O)CC[C@]4(C)[C@H]3CC[C@]12C` [HDCA, hyodeoxycholic acid, reference compound], in assay [1] (Example 1), the “Effect on mice with premature ovarian failure (conclusion from estrous cycle)” value was “preventive and therapeutic effects”. Besides, in assay [1] (setting [3]), the “Average rate of diestrum (D) in estrous cycle” value came out at 39.29%, the “Average rate of estrous stage (E) in estrous cycle” value came out at 22.62%, the “Average rate of metestrum (M) in estrous cycle” value is recorded as 14.29% and the “Average rate of proestrous (P) in estrous cycle” value is 23.81%. In addition, the “Number of mice with estrous cycle recovered” value in assay [1] (Example 1, 12 days observation, 6 SF, 7 HDCA, 7 SF and HDCA mice left) is given as 3 mice. For the same compound, the “Effect on mice with premature ovarian failure (conclusion from estrous cycle)” value in assay [2] (Example 2) was “preventive and therapeutic effects”. For the same compound, in assay [2] (setting [4]), the “Average rate of diestrum (D) in estrous cycle” value worked out at 52.08%, the “Average rate of estrous (E) stage in estrous cycle” value amounted to 6.25%, the “Average rate of metestrum (M) in estrous cycle” value was 12.50% and the “Average rate of proestrous (P) in estrous cycle” value was found to be 29.17%. The “Number of mice with estrous cycle recovered” value in assay [2] (Example 2, 12 days observation, DMF n=5, HDCA n=6, DMF and HDCA n=7) was 3 mice.

Values taken from patent US12622890B2, “Use of the active compound in the prevention or treatment of ovarian dysfunction diseases” (INSTITUTE OF BIOPHYSICS, CHINESE ACADEMY OF SCIENCES, priority 2022, dated 2026).
